From patent US20190029987A1, “DIMETHYL FUMARATE (DMF) FOR PREVENTION OR TREATMENT OF GOUT, ACNE, DIABETES, VITILIGO AND/OR PYODERMA GANGRENOSUM” (UNIVERSITAT ZURICH, priority 2016, published 2019) come the findings set out here.

Structures are written as SMILES. Peptide text beside a SMILES is read from it. * marks the point of attachment. Cbz = O=C(OCc1ccccc1)*

Assay [1] concerns Nrf2. The assay is described as follows: Nigericin-induced Nrf2 degradation in THP-1 cells (Western blot). In kind it is cell-based, human. The note with it: THP-1, nigericin 5 μM, 1 μM added after 1 h, harvested after 2.5 h, FIG. 4I. From the text: Next, the inventors investigated the activity of Nrf2 upon activation of the NLRP3 inflammasome, since inflammasome activation is ROS-dependent. […] This is surprising, since UVB irradiation is a strong inducer of ROS production and it can be anticipated that the cells would benefit from Nrf2 activation. UVB-induced secretion by HPKs requires expression of NLRP1 and NLRP3 [21]. Both nigericin and MSU crystals are considered as “true” NLRP3 activators, but HPKs cannot phagocytose MSU crystals. Therefore, the inventors treated HPKs with nigericin only and THP-1 cells with either of these NLRP3 activators. […] Therefore, NLRP3 inflammasome activation most likely induces Nrf2 protein degradation. […]
(A-C) HPKs were irradiated with (A) UVB or treated with (B) nigericin (5 μM) and cells and supernatants were harvested at different time points as indicated. […] (C) Expression of Nrf2 and Nrf2 target genes was determined by qRT-PCR. […] Cells and supernatants were harvested at different time points as indicated and analysed for (D) expression and activation of the proteins as indicated by Western blot and (E) expression of Nrf2 and Nrf2 target genes by qRT-PCR. […] Cells were harvested after 1 h or 5 h, and lysates were analysed for the expression of the indicated proteins by Western blot. […] (G) Nrf2 expression related to the indicated background band was quantified from the Western blot. […]
On the technique in general: A western blot detects proteins with antibodies after separation by electrophoresis.

Assay [2] concerns Nrf2. The assay is described as follows: UVB-induced Nrf2 degradation in HPKs (Western blot). The note with it: 1 μM for 10 min, harvested after 1 h, FIG. 7D. Format: cell-based, human. From the text:
Next, the inventors investigated the activity of Nrf2 upon activation of the NLRP3 inflammasome, since inflammasome activation is ROS-dependent. […] This is surprising, since UVB irradiation is a strong inducer of ROS production and it can be anticipated that the cells would benefit from Nrf2 activation. UVB-induced secretion by HPKs requires expression of NLRP1 and NLRP3 [21]. Both nigericin and MSU crystals are considered as “true” NLRP3 activators, but HPKs cannot phagocytose MSU crystals. Therefore, the inventors treated HPKs with nigericin only and THP-1 cells with either of these NLRP3 activators. […] Therefore, NLRP3 inflammasome activation most likely induces Nrf2 protein degradation. […] However, inflammasome activation-induced Nrf2 degradation was blocked upon ablation of ASC or NLRP3 expression (FIG. 4G) and upon treatment of cells with the ROS blocker PDTC or the Ca2+ chelator BAPTA-AM (Supplementary FIG. 2D). […] However, inflammasome function was not impaired, as reflected by normal processing of pro-IL-18 (FIG. 4H). Although Keap1 expression is partially dispensable for Nrf2 degradation by inflammasome activation, the transcription factor is directed to the proteasome under these conditions, since Nrf2 degradation was inhibited by the proteasome inhibitor MG132 (FIG. 4I and FIG. 7D).
FIG. 7: (A-C) HPKs were transfected with siRNAs for 3 d as indicated. Scrambled (scr) siRNA and siRNA targeting the unrelated vascular endothelial growth factor (VEGF) served as controls. Western blots of (A) total lysates or (B) nuclear and cytoplasmic lysates and (C) qRT-PCR for expression of target gene expression. (D) HPKs were treated with MG132 (1 μM), PDTC (500 μM) or BAPTA-AM (12.5 μM) for 10 min and harvested (before UV) or irradiated with UVB and harvested after 1 h. Western blots showing expression of Nrf2. (E) Differentiated and primed THP-1 cells were pretreated with cycloheximide (CHX, 30 μg/ml) for 1 h before priming cells with upLPS overnight. Western blots show expression of the indicated proteins. […] Statistics: (C) Mann-Whitney test, related to scr control. *P≤0.05

As for `CC(C)C[C@@H](C=O)NC(=O)[C@H](CC(C)C)NC(=O)[C@H](CC(C)C)NC(=O)OCc1ccccc1` [MG132] (Cbz-Leu-Leu-Leu-aldehyde), the “inflammasome activation-induced Nrf2 degradation” value in assay [1] and in assay [2] was “inhibited” each time.
